Assay [1] in a line: Inhibition of RGGT. Set-up: species or system Homo sapiens.
Assay [2] in a line: Bone mineral affinity on hydroxyaptite assessed as retention time by chromatography. It is filed as functional.
A short description of assay [3]: Reduction of viability of mouse […] cells after 48 hrs. It counts as cell-based.
In assay [4] the test system is J744. The experiment in a line: Inhibition of RGGT mediated Rab11 prenylation in […] cells. It is filed as cell-based. The settings on record: Mus musculus.
Assay [5] deals with T1, Farnesyl pyrophosphate synthase (Homo sapiens, UniProt P14324).
T1 sequence (P14324 whole entry): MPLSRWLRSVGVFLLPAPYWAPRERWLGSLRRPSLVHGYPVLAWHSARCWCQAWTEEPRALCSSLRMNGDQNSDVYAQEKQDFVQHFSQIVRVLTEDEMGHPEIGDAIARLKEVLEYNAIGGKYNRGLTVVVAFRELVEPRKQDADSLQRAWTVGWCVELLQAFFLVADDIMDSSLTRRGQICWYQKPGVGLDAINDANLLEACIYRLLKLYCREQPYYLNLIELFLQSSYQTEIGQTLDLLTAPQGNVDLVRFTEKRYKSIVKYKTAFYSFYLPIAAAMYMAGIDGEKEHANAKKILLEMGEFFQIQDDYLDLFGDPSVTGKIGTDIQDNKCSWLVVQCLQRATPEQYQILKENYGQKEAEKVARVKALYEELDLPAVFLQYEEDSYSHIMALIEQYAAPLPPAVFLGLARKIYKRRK
Put plainly: Inhibition of human cloned FPPS expressed in Escherichia col […].

Assay [6] relates to J744. The experiment in a line: Inhibition of RGGT mediated Rap1A prenylation in […] cells. It is filed as cell-based. The settings on record: Mus musculus.

The source made the active and inactive calls. The rule behind the calls is not given here.

Experimental findings from ChEMBL document CHEMBL1138296, “Synthesis and biological evaluation of alpha-halogenated bisphosphonate and phosphonocarboxylate analogues of risedronate” (J Med Chem, 2007) are described below.

As to `O=C(O)C(Cc1cccnc1)P(=O)(O)O` (stereo not drawn), the values for the IC50 in assay [1] and in assay [3] were 35.3 µM and 2.6 µM, respectively. In assay [2], the result was inactive. In the assay on J744 [4], the MED amounted to 62 µM.
As to `O=C(O)C(F)(Cc1cccnc1)P(=O)(O)O` (stereo not drawn), the half-inhibitory concentration (IC50) in assay [5] is above 600 µM; in assay [1] it was 16.3 µM; in assay [3], 1.8 µM. The result in assay [2] was inactive. In addition, the MED with J744 [4] was found to be 31 µM.
Consider `O=C(O)C(Cl)(Cc1cccnc1)P(=O)(O)O` (stereo not drawn), for which the figures for the IC50 in assay [5], in assay [1] and in assay [3] were above 600 µM, 16.4 µM and 5 µM, respectively. Also, in assay [2], the result was inactive. In addition, in the assay on J744 [4], the MED worked out at 125 µM.
Turning to `O=P(O)(O)C(Br)(Cc1cccnc1)P(=O)(O)O`, the concentration for half-maximal inhibition (IC50) came to 0.34 µM in assay [5] and 673 µM in assay [3]. Further, the TIME in assay [2] was found to be 0.0955 h. The MED in the assay on J744 [6] turned out to be 400 µM.
`O=P(O)(O)C(F)(Cc1cccnc1)P(=O)(O)O`: the figures for the IC50 in assay [5] and in assay [3] were 0.0164 µM and 140 µM, respectively. The TIME in assay [2] came out at 0.0988 h. For the same compound, in the assay on J744 [6], the MED amounted to 100 µM.
Regarding `O=P(O)(O)C(O)(Cc1cccnc1)P(=O)(O)O` [RISEDRONIC ACID], the TIME in assay [2] was 0.166 h. Further, the IC50 in assay [3] came out at 31 µM. Moreover, the MED with J744 [6] came out at 12 µM.
Consider `O=C(O)C(Br)(Cc1cccnc1)P(=O)(O)O` (stereo not drawn), for which the results for the IC50 in assay [5], in assay [1] and in assay [3] were above 60 µM, 17.7 µM and 5.5 µM, respectively. In addition, the result in assay [2] was inactive. Further, the MED with J744 [4] was determined as 125 µM.
Consider `O=P(O)(O)C(Cl)(Cc1cccnc1)P(=O)(O)O`, for which the results for the IC50 in assay [5] and in assay [3] were 0.0946 µM and 679 µM, respectively. For the same compound, the TIME in assay [2] was found to be 0.101 h. In the assay with J744 [6], this compound displayed an MED of 400 µM.
With `O=C(O)[C@@](O)(Cc1cccnc1)P(=O)(O)O`, the 50% inhibitory concentration (IC50) stood at 254 µM in assay [5], 24.1 µM in assay [1] and 2.3 µM in assay [3]. For the same compound, the TIME in assay [2] came out at 0.0767 h. The same compound returned an MED in the assay with J744 [4] of 62 µM.
Regarding `O=P(O)(O)C(Cc1cccnc1)P(=O)(O)O`, the 50% inhibitory concentration (IC50) in assay [5] came out at 0.0342 µM; in assay [3] it was 212 µM. Further, in assay [2], the TIME was 0.0972 h. Moreover, the MED with J744 [6] stood at 50 µM.
